The text below walks through data of US20170258786A1, “RBP4 ANTAGONISTS FOR THE TREATMENT OF AGE-RELATED MACULAR DEGENERATION AND STARGARDT DISEASE” (The Trustees of Columbia University in the City of New York, priority 2013, published 2017).

Each structure is given as a SMILES string.

The subject of one data set is ERG b-wave. The data set is described as follows: ERG b-wave after photobleaching. To be noted: in vivo.
For the next data set, the target named is T1, RBP4-TTR interaction (Homo sapiens, UniProt P02753).
T1 construct: host or cells: E. coli
The data set is described as follows: TR-FRET/HTRF assay for antagonists of retinol-induced RBP4-TTR interaction (Example 2, agonist and antagonist mode). It is filed as biochemical. To be noted: agonist mode, dose titration without retinol. The text has this: TR-FRET (Time-Resolved Fluorescence Resonance Energy Transfer) is an assay format that can be used in characterization of compounds affecting protein-protein interactions (31-33). […] In the presence of retinol, RBP4-TTR interaction induces FRET that can be registered as increased ratio of […] fluorescence signals. Binding of a desired RBP4 antagonist displaces retinol and induces hindrance for RBP4-TTR interaction resulting in the decreased FRET signal (FIG. 7).
The assay was developed using E. coli-expressed MBP-tagged RBP4 and commercially available TTR labeled directly with Eu3+ cryptate. In addition to MBP-RBP4 and Eu3+ (K)-TTR, a detector reagent anti-MBP-d2 was present in the mix. The assay was first optimized in the agonist mode; sensitivity and dynamic range of the assay was […] in respect to RBP4, TTR and detection reagent concentrations.
(In general: TR-FRET usually uses a lanthanide donor and a delayed reading to cut background.)

The next data set deals with insulin sensitivity. To be noted: reference 12; cited from earlier work.
The target of another data set is T2, serum RBP4 (Mus musculus, UniProt Q00724).
T2 construct: There was approximately a 70% reduction in the serum RBP4 level in treated animals; from tissue; host or cells: mouse serum (Abca4-/- and wild-type, 129/SV x C57BL/6J)
The data set is described as follows: Serum RBP4 measured by ELISA in Abca4-/- mice. It is filed as in vivo. The procedure: The Abca4−/− mouse model manifests accelerated accumulation of lipofuscin in the RPE and is considered a pre-clinical efficacy model for a drug reducing lipofuscin accumulation.
(§1) Ten week-old Abca4 null mutant mice (129/SV×C57BL/6J) bred as previously described were used in the study. Abca4−/− (knockout) and Abca4+/+ (wild-type) mice were raised under 12 h on-off cyclic lighting with an in-cage illuminance of 30-50 lux. For long-term oral dosing A1120 was formulated into Purina 5035 rodent chow at Research Diets, Inc. (New Brunswick, N.J.) to ensure consistent 30 mg/kg daily oral dosing. Animals were administered the A1120-containing chow for 6 weeks.
Blood samples were collected from a tail vein at days 0, 21 and 42 of the A1120 dosing. Whole blood was drawn into a centrifuge tube and was let clot at room temperature for 30 min followed by centrifugation at 2,000×g for 15 minutes at +4′C to collect serum. Serum RBP4 was measured using the RBP4 (mouse/rat) dual ELISA kit (Enzo Life Sciences) following the manufacturer's instructions.
On the technique in general: ELISA stands for enzyme-linked immunosorbent assay.

Data set [1] has as its system lipofuscin bisretinoids (A2E, A2-DHP-PE, atRAL di-PE). The data set is described as follows: Lipofuscin bisretinoid levels in eyecups of Abca4-/- mice by HPLC. It is filed as in vivo, mouse. To be noted: Example 3, treated mice, 30 mg/kg oral. The text has this:
The Abca4−/− mouse model manifests accelerated accumulation of lipofuscin in the RPE and is considered a pre-clinical efficacy model for a drug reducing lipofuscin accumulation. […] There was approximately a 70% reduction in the serum RBP4 level in treated animals (FIG. 11). Additionally, it was discovered that that the levels of A2E/isoA2E and other bisretinoids were reduced by approximately 50% in treated mice (FIG. 12).
Abca4/Abcr null mutant mice (albino) homozygous for Rpe65-Leu450 are bred genotyped and housed. […] An Alliance system (Waters, Corp, Milford, Mass.) equipped with 2695 Separation Module, 2996 Photodiode Array Detector, a 2475 Multi λ Fluorescence Detector and operating with Empower® software is used for HPLC analysis. […] HPLC quantification is carried out using the Empower® software to determine peak areas. […] Molar quantity per murine eye is determined using calibration curves constructed from known concentrations of purified external standards and by normalizing to the ratio of the HPLC injection volume (10 μL) versus total extract volume. […]
Following euthanasia, posterior eye cups were pooled and homogenized in PBS using a tissue grinder. […] Levels of bisretinoid were determined by reference to external standards of HPLC-purified compound.

Data set [2] is described as follows: Signs of toxicity during 6 week chronic dosing of Abca4-/- mice. It is filed as in vivo. To be noted: 6 week-long chronic dosing, 30 mg/kg. The procedure: as §1
Administration of A1120 reduces the production of A2E, A2-DHP-PE, and atRAL di-PE in A1120-treated Abca4−/− mice in comparison to the vehicle-treated Abca4−/− animals by approximately 50%.

For the next data set, the system named is A2E production. The settings on record: animal model of excessive bisretinoid accumulation, reference 11; cited from earlier work.
Setting [3] is: Abca4-/- mice, 30 mg/kg daily oral in chow.

In the case of `O=C(O)c1ccccc1NC(=O)N1CCC(c2ccccc2C(F)(F)F)CC1` [Compound 1, 2(4-(2-(trifluoromethyl)phenyl)piperidine-1-carboxamido)benzoic acid], the “Effect on ERG b-wave after photobleaching” value in the data set on ERG b-wave is “does not reduce ERG b-wave”. At RBP4-TTR interaction, the “Induction of RBP4-TTR interaction” value is “did not induce RBP4-TTR interaction”. Besides, the “Insulin sensitivity in mouse diabetes models” value in the data set on insulin sensitivity is “did not improve insulin sensitivity”. Moreover, at serum RBP4 (setting [3]), the “Serum RBP4 reduction at Week 3 (Day 21) compared with Day 0” value amounted to 64% and the “Serum RBP4 reduction at Week 6 (Day 42) compared with Day 0” value is reported as 75%. The “Reduction in serum RBP4 level” value at serum RBP4 (orally dosed for 3 weeks at 30 mg/kg, treated animals) is listed as around 70%. Also, in data set [1], the “Levels of A2-DHP-PE and atRAL di-PE” value is given as “reduced”; the “Reduction of levels of A2E/isoA2E and other bisretinoids” value is reported as “approximately 50%”. For the same compound, the “Signs of compound toxicity such as weight loss or reduction in food consumption” value in data set [2] is reported as “did not note any obvious signs of compound toxicity”.

In the case of `CC1=C(/C=C/C(C)=C/C=C/C(C)=C/C(=O)Nc2ccc(O)cc2)C(C)(C)CCC1` [fenretinide, N-(4-hydroxy-phenyl)retinamide], the “Induction of RBP4-TTR interaction” value on RBP4-TTR interaction is “did not induce RBP4-TTR interaction”. In the data set on A2E production, the “A2E production in Abca4-/- mice” value is “reduced A2E production”.
